We go through eight molecules from patent US8927579B2, “Male contraceptive” (priority 2007, dated 2015).

The subject of assay [1] is circular muscle of human vas deferens. Description: IC50 against contractions evoked by high K+ (120 mM) in the presence of FPL 64176, circular muscle rings. Particulars: contractions evoked by K+ (120 mM) in the presence of FPL 64176 (1 μM), means ± S.E.M. The source says: (§1) Human vas deferens specimens were obtained after elective vasectomies of healthy fertile men. College ethical approval and the consent of patients were obtained. The specimens were placed in ice-cold Krebs' medium, dissected-free of connective tissue/blood vessels and cut longitudinally into strips (longitudinal muscle preparations; 5-10 mm long & 1 mm wide) or transversely into rings (circular muscle preparations; 3 mm in length). The longitudinal and circular muscle preparations were then set up for tension recording (resting tension 5-7 mN) in a Perspex chamber superfused at 2 ml per min with Krebs' medium (36° C.) composed of (mM): NaCl, 118.8; NaHCO3, 25; KCl, 4.7; CaCl2.2H2O, 2.5; KH2PO4, 1.2; MgSO4.7H2O, 1.2; glucose, 11.1; ascorbic acid 0.1 and continuously gassed with 95% O2 and 5% CO2. Contractile responses were recorded via a Harvard-type force-displacement transducer. The analog signals were digitised using CIO-Das 16/Jr data acquisition software (Amplicon Liveline, Brighton, UK) and re-plotted on a microcomputer.
(§2) Tissues were equilibrated for 180 min in Krebs' medium containing inhibitors of extraneuronal and neuronal reuptake of noradrenaline, oestradiol (1 μM) and desipramine (0.1 μM) respectively, inhibitors of catechol-O-methyltransferase and monoamine oxidase, tropolone (10 μM) and iproniazid (10 μM) respectively and the β-adrenoceptor blocker, propranolol (1 μM). At the end of the equilibration period, the tissues were stimulated with noradrenaline (100 μM). […] After a contact time of 30-40 min in this medium, different experimental protocols (described below) were adopted in order to • (a) Elucidate the contractile actions of L-type Ca^2+ agonists such as FPL 64176 or Bay K 8644. In these experiments, tissues were exposed to FPL 64176 (0.1-10 μM added cumulatively) or in separate experiments Bay K 8644 (0.1-10 μM added cumulatively). • (b) Investigate the effects of various diphenylalkylamines and conventional L-type Ca^2+ antagonists (methoxyverapamil or nifedipine) on contractions evoked by high concentrations of extracellular potassium (high [K^+]o) in the presence of L-type Ca^2+ agonists, FPL 64176 (1 μM) or Bay K 8644 (1 μM). In this protocol, tissues were stimulated with high [K^+]O (10, 30 and 120 mM at 10-15 min intervals) in normal Krebs' medium, then exposed to L-type Ca^2+ agonists for 20-30 min and subsequently stimulated with high [K^+]O (10, 30 and 120 mM) in the presence of the drugs. These provided the initial responses. Following this and in the continuous presence of the L-type Ca^2+ agonists, the tissues were exposed additionally to L-type Ca^2+ antagonists (conventional or diphenylalkylamines) or drug-free vehicle medium. After contact times of 25-50 min the tissues were stimulated, first with high [K^+]O (either 30 mM or 120 mM) in order to take account of the well-documented use-dependent action of the diphenylalkylamine Ca^2+ antagonists. Following recovery from the test contraction and after a further 30-40 min, the tissues were then stimulated with high [K^+]o (10, 30 and 120 mM). This protocol is illustrated in FIGS. 3 and 4. The resulting contractions were measured (see below) and expressed as a percentage of corresponding initial responses to high [K^+]o evoked in the presence of L-type Ca^2+ agonists (i.e. before exposure to L-type Ca^2+ antagonists). […] Subsequent analysis (see below) was between contractions of drug-treated tissues and time-matched controls • (c) Determine the inhibitory potencies (IC50 values) of various diphenylalkylamines and phenothiazines and conventional L-type Ca^2+ antagonists (nifedipine and methoxyverapamil) against contractions evoked in longitudinal and circular muscle of human vas deferens by high [K^+]o (120 mM) in the presence of FPL 64176. In these experiments, tissues were stimulated with high [K^+]o (120 mM); sequentially in normal Krebs' medium and after 25-30 min exposure to the L-type Ca^2+ agonist, FPL 64176, (1 μM, Initial response). […]

Assay [2] shares this test system. Description: Inhibition at fixed concentration of contractions evoked by high K+ in the presence of FPL 64176, circular muscle. The note with it: [K+]o 120 mM in the presence of FPL 64176.
Description: as §1
(§3) Tissues were equilibrated for 180 min in Krebs' medium containing inhibitors of extraneuronal and neuronal reuptake of noradrenaline, oestradiol (1 μM) and desipramine (0.1 μM) respectively, inhibitors of catechol-O-methyltransferase and monoamine oxidase, tropolone (10 μM) and iproniazid (10 μM) respectively and the β-adrenoceptor blocker, propranolol (1 μM). At the end of the equilibration period, the tissues were stimulated with noradrenaline (100 μM). […] After a contact time of 30-40 min in this medium, different experimental protocols (described below) were adopted in order to • (a) Elucidate the contractile actions of L-type Ca^2+ agonists such as FPL 64176 or Bay K 8644. In these experiments, tissues were exposed to FPL 64176 (0.1-10 μM added cumulatively) or in separate experiments Bay K 8644 (0.1-10 μM added cumulatively). • (b) Investigate the effects of various diphenylalkylamines and conventional L-type Ca^2+ antagonists (methoxyverapamil or nifedipine) on contractions evoked by high concentrations of extracellular potassium (high [K^+]o) in the presence of L-type Ca^2+ agonists, FPL 64176 (1 μM) or Bay K 8644 (1 μM). In this protocol, tissues were stimulated with high [K^+]O (10, 30 and 120 mM at 10-15 min intervals) in normal Krebs' medium, then exposed to L-type Ca^2+ agonists for 20-30 min and subsequently stimulated with high [K^+]O (10, 30 and 120 mM) in the presence of the drugs. These provided the initial responses. Following this and in the continuous presence of the L-type Ca^2+ agonists, the tissues were exposed additionally to L-type Ca^2+ antagonists (conventional or diphenylalkylamines) or drug-free vehicle medium. After contact times of 25-50 min the tissues were stimulated, first with high [K^+]O (either 30 mM or 120 mM) in order to take account of the well-documented use-dependent action of the diphenylalkylamine Ca^2+ antagonists. Following recovery from the test contraction and after a further 30-40 min, the tissues were then stimulated with high [K^+]o (10, 30 and 120 mM). This protocol is illustrated in FIGS. 3 and 4. The resulting contractions were measured (see below) and expressed as a percentage of corresponding initial responses to high [K^+]o evoked in the presence of L-type Ca^2+ agonists (i.e. before exposure to L-type Ca^2+ antagonists). […]

In assay [3] the test system is longitudinal muscle of human vas deferens. In words: IC50 against contractions evoked by high K+ (120 mM) in the presence of FPL 64176, longitudinal muscle strips. The note with it: contractions evoked by K+ (120 mM) in the presence of FPL 64176 (1 μM), means ± S.E.M.
Description: as §1, §2

The test system is the same in assay [4]. Description: Inhibition at fixed concentration of contractions evoked by high K+ in the presence of FPL 64176, longitudinal muscle. The note with it: [K+]o 120 mM in the presence of FPL 64176.
Description: as §1
as §3, with “Following this and in the continuous presence of the L-type Ca^2+ agonists, the tissues were exposed additionally to L-type Ca^2+ antagonists (conventional or diphenylalkylamines) or drug-free vehicle medium. After contact times of 25-50 min the tissues were stimulated, first with high [K^+]O (either 30 mM or 120 mM) in order to take account of the well-documented use-dependent action of the diphenylalkylamine Ca^2+ antagonists. Following recovery from the test contraction and after a further 30-40 min, the tissues were then stimulated with high [K^+]o (10, 30 and 120 mM). This protocol is illustrated in FIGS. 3 and 4.” left out

Assay [5] has the same test system. In words: New molecules against contractions to high K+ (120 mM), longitudinal muscle. Particulars: for IC50: Homo sapiens, contractions evoked by K+ (120 mM), preliminary data, mean, n=2-3, read-out: Functional inhibitory potencies (IC50 values), Longitudinal muscle; for relative effectiveness against longitudinal and circular muscle contractions: contractions evoked by high [K+]o; for Selectivity [(C/L)-1]: longitudinal muscle selectivity from IC50 values in circular and longitudinal muscle, K+ (120 mM).
Description: as §1, with “preparations; 5-8” for “preparations; 5-10”, “preparations; ˜3” for “preparations; 3”, “a Harvard type” for “a Harvard-type”
(§4) Tissues were equilibrated for 180 min in Krebs' medium containing inhibitors of extraneuronal and neuronal reuptake of noradrenaline, oestradiol (1 μM) and desipramine (0.1 μM) respectively, inhibitors of catechol-O-methyltransferase and monoamine oxidase, tropolone (10 μM) and iproniazid (10 μM) respectively and the β-adrenoceptor blocker, propranolol (1 μM). At the end of the equilibration period, the tissues were stimulated with noradrenaline (100 μM). […] After 40-45 min in this medium the tissues were stimulated with high [K^+]O (120 mM, Initial response). This was followed by exposure to cumulative concentrations of the new molecules {NIBA(1)XC1, NIBA(14)XN10, NIBA(6)XN3, NIBA(2)XC2, NIBA(53)XN16} or to Krebs' medium containing drug vehicles (time-matched controls). After contact times of 40-60 min at each drug concentration, the tissues were stimulated with high [K^+]o (120 mM). The resulting contractions were measured using computer software developed in-house to measure the total response (i.e. rhythmic activity plus tonic contraction). Contractions obtained in the presence of the new drug molecules were expressed as a percentage of the initial contraction evoked by high [K^+]o (120 mM) before exposure to the drugs.

In assay [6] the test system is circular muscle of human vas deferens. Description: New molecules against contractions to high K+ (120 mM), circular muscle. Particulars: contractions evoked by K+ (120 mM), preliminary data, mean, n=2-3, read-out: Functional inhibitory potencies (IC50 values), Circular muscle.
Description: as §1, with “preparations; 5-8” for “preparations; 5-10”, “preparations; ˜3” for “preparations; 3”, “a Harvard type” for “a Harvard-type”
as §4

Assay [7] relates to longitudinal muscle of human vas deferens. Description: Contractile actions of L-type Ca2+ agonists, longitudinal muscle.
Description: as §1, §2

In assay [8] the test system is circular muscle of human vas deferens. Description: Contractile actions of L-type Ca2+ agonists, circular muscle.
Description: as §1, §2

The mark [9] stands for this setting: [K+]o 30 mM & 120 mM in the continuous presence of agonist 1.0 μM.
[10] abbreviates: agonist 0.1-3 μM, brief exposure.

Take (−)-methoxyverapamil hydrochloride: the IC50 (usually the concentration at which inhibition is half-maximal) in assay [1] was 18.1 ± 3.8 nM; in assay [3], 16 ± 0.9 nM. Also, the “inhibition of circular muscle contractions” value in assay [2] (drug 1.0 μM) is 93-98%. Moreover, the “inhibition of longitudinal muscle contractions” value in assay [4] (drug 1.0 μM) is reported as 93-98%.
Regarding `COCC(=O)O[C@]1(CCN(C)CCCc2nc3ccccc3[nH]2)CCc2cc(F)ccc2[C@@H]1C(C)C` [Mibefradil], the IC50 in assay [1] (Homo sapiens) worked out at 2400 ± 900 nM; in assay [3] (Homo sapiens), 1100 ± 200 nM.
On to `CN1CCCCC1CNCCC(c1ccccc1)c1ccccc1` (stereo not shown) [NIBA(1)XC1], for which, in assay [5], the IC50 is 3.02 µM; the “relative effectiveness against longitudinal and circular muscle contractions” value (shortened to “relative effectiveness”) is reported as “more effective against longitudinal than circular muscle contractions”; the “Selectivity [(C/L)-1]” value is reported as 7.01. Also, the IC50 in assay [6] is 24.2 µM.
On to `COC(=O)C1=C(C)NC(C)=C([N+](=O)[O-])[C@H]1c1ccccc1C(F)(F)F` [Bay K 8644], for which the “contractions on second exposure to [K+]o, percentage of corresponding initial responses, longitudinal muscle” value in assay [7] (setting [9]) is approximately 92%. Further, the “response of longitudinal muscle to higher concentration of L-type Ca2+ agonist” value in assay [7] (agonist 10 μM) is listed as “rhythmic contractility”. Besides, the “response of longitudinal muscle to brief exposure to L-type Ca2+ agonist” value in assay [7] (setting [10]) was “unresponsive”. Besides, the “contractions on second exposure to [K+]o, percentage of corresponding initial responses, circular muscle” value in assay [8] (setting [9]) was 86-92%. The “response of circular muscle to higher concentration of L-type Ca2+ agonist” value in assay [8] (agonist 10 μM) was “rhythmic contractility”. Besides, the “response of circular muscle to brief exposure to L-type Ca2+ agonist” value in assay [8] (setting [10]) was “unresponsive”.
As to `CC(NCCN(c1ccccc1)c1ccccc1)c1ccccc1` (stereo not shown) [NIBA(14)XN10], in assay [5], the IC50 was found to be 15 µM; the “relative effectiveness” value was “more effective against longitudinal than circular muscle contractions”; the “Selectivity [(C/L)-1]” value is 5.1. For the same molecule, the IC50 in assay [6] turned out to be 91 µM.
With `O=c1[nH]c2ccccc2n1C1CCN(CCCC(c2ccc(F)cc2)c2ccc(F)cc2)CC1` [Pimozide, pimozide], the IC50 in assay [1] (Homo sapiens) worked out at 8900 ± 3100 nM; in assay [3] (Homo sapiens), 4400 ± 600 nM. Moreover, the inhibition (as a rule, the change of the read-out against control, counted positive when it falls) at 10 µM in assay [2] (Homo sapiens, drug 10 μM) turned out to be 55%; in assay [4] (Homo sapiens, drug 10 μM), 71%.
As to `CN1CCCCC1CCN(c1ccccc1)c1ccccc1` (stereo not shown) [NIBA(6)XN3], in assay [5], the half-inhibitory concentration (IC50) was found to be 6.25 µM; the “relative effectiveness” value is “more effective against longitudinal than circular muscle contractions”; the “Selectivity [(C/L)-1]” value is recorded as more than 3.8. In addition, the IC50 in assay [6] was more than 30 µM.
Take `CN1CCCC1CCN(c1ccccc1)c1ccccc1` (stereo not shown) [NIBA(53)XN16]: in assay [5], the IC50 is 4.5 µM and the “Selectivity [(C/L)-1]” value came to 1.4. In addition, the half-maximal inhibitory concentration (IC50) in assay [6] amounted to 11 µM.
